“Also recorded” adds a separate entry of the source.
Legend:
Type in all cases: cell-based
[1] = system: MIEP-IE2-GFP cells (MIEP-IE2-IRES-GFP circuit, ARPE-19); assay: Flow cytometry of GFP in negative-feedback MIEP-IE2-GFP cells; settings: different levels of activation by TSA treatment, 17 hours
Source text: (§1) Mathematica™ (Wolfram Research) was used for closed-loop analysis. Standard lentiviral cloning was used to create minimal MIE circuits (Dull et al., 1998). The minimal MIEP-IE2-GFP and MIEP-GFP circuits are driven by a full-length ˜2.5 kb MIE promoter-enhancer (MIEP) that spans the sequence from the MIEP modulator at the 5′ edge to the junction of IE exons 1 and 2. The MIEP was PCR-cloned from AD169 into pLEIGW (a gift from Thor Lemishka) in place of the EF1a promoter. This full-length MIEP drives an IE2-IRES-GFP or mCherry-IRES-GFP cassette. IE2 was cloned from pRSV-IE86 (a gift from Jay Nelson). ARPE-19 cells were infected and FACS sorted for GFP to create stably expressing cell lines. Cells were treated with TSA for 17 hours, and GFP expression was quantified by flow cytometry. Live cells were gated by forward-versus-side scattering on a FacsCalibur™ cytometer (BD Biosciences) and mean fluorescence intensity recorded. At least 20,000 live cells were recorded for each experiment and data was analyzed in FlowJo™ (Treestar Inc.).
Cell lines (ARPE-19 cells) expressing IE2-GFP from MIE promoter (MIEP) (referred to as “MIEP-IE2-GFP cells”) were tested, in comparison to a cell line expressing MIEP-GFP control (referred to as “MIEP-GFP control cells). MIEP-IE2-GFP cells and MIEP-GFP control cells were treated with 10 ng/ml TNF-α, 400 nM TSA, or 1 mM VPA in MIEP-IE2-GFP cells. […]

IE2 = assay: Quantitative Western blot of IE2 expression during CMV infection; settings: pre-treatment with activator vs untreated control
Experimental: (§2) MRC5 fibroblasts and life-extended human foreskin fibroblasts (HFFs) (Bresnahan and Shenk, 2000) were maintained in Dulbecco's Modified Eagle's Medium (DMEM) supplemented with 10% fetal bovine serum (FBS) and 50 U/ml penicillin-streptomycin at 37° C. and 5% CO2 in a humidified incubator. ARPE-19 cells were maintained in a 1:1 mixture of DMEM/F-12 (Mediatech Inc.) with 10% FBS (HyClone) and 50 U/ml Penicillin-Streptomycin (Mediatech Inc.). Cells were pretreated in a final concentration of 1 mM VPA (Calbiochem).
MRC5s at ˜60% confluency were infected at MOI=1. To synchronize viral entry, adsorption was done at 4° C. for 30 min., cells washed once in PBS (Mediatech, Inc.), fresh media added, and cells placed at a 37° C. in a humidified CO2 incubator. Time points were collected every 1-2 hrs for 20-24 hrs as indicated. Sample collection, protein transfer, and blot preparation were as previously described (Bolovan-Fritts et al., 2004) and samples were loaded and separated on precast SDS PAGE 10% or 7.5% bisacrylamide gels (BioRad).
For quantitative IE2 detection, the 1° antibody MAB810 (Millipore) was used at 1:100 and 2° antibody 926-32212 (LI-COR™) was used at a dilution of 1:20,000. For normalization, anti-beta tubulin antibody 26-42211 (LI-COR™) used at a dilution of 1:2000 followed by 2′ antibody 926-68073 (LI-COR™) at a dilution of 1:20,000. Blots were scanned and quantified on a LI-COR™ Odyssey™ according to manufacturer's protocols.

[2] = system: MIEP-GFP control cells (MIEP-mCherry-IRES-GFP circuit, ARPE-19); assay: Flow cytometry of GFP in non-feedback MIEP-GFP control cells; settings: for GFP median fluorescence intensity: 10 ng/ml TNF-α, 400 nM TSA, or 1 mM VPA
Source text: as §1
Cell lines (ARPE-19 cells) expressing IE2-GFP from MIE promoter (MIEP) (referred to as “MIEP-IE2-GFP cells”) were tested, in comparison to a cell line expressing MIEP-GFP control (referred to as “MIEP-GFP control cells). MIEP-IE2-GFP cells and MIEP-GFP control cells were treated with 10 ng/ml TNF-α, 400 nM TSA, or 1 mM VPA in MIEP-IE2-GFP cells. The data are depicted in FIG. 33.

[3] = system: cells expressing the wild-type accelerator circuit MIEP-IE2-IRES-GFP; assay: Percentage of live cells by flow cytometry, wild-type accelerator circuit cells; settings: after 14 days of TSA treatment
Experimental: (§3) MIEPΔcrs-IE2-GFP was constructed by PCR cloning MIEPΔcrs from the CMV Δcrs IE2-YFP bacmid and inserted into MIEP-IE2-GFP. ARPE-19 cells were transduced with the MIEP-IE2-GFP and MIEPΔcrs-IE2-GFP vectors and FACS sorted for GFP. The transduced cell lines were allowed to recover for 24 hours before the percentage of GFP-expressing cells for each cell line was quantified. Live cells were gated by forward versus side scattering on a FacsCalibur cytometer. On the first day after recovery, 2,500 GFP events were recorded. Subsequently, at least 10,000 GFP events were recorded for each experiment and analyzed using FlowJo™. For genomic PCR, genomic DNA was purified using a NucleoSpin Tissue kit (Clontech).

[4] = system: cells expressing the mutant amplifier circuit MIEPΔcrs-IE2-IRES-GFP; settings: after 14 days of TSA treatment
Experimental: as §3

IE2-YFP = assay: Single-cell time-lapse fluorescence microscopy of IE2-YFP levels, CMV IE2-YFP virus; settings: pretreatment with activator vs untreated control
Experimental: as §2
Life-extended HFFs and PML knockdown HFFs (a gift from Roger Everett) were passed onto a 96-well glass-bottom plate (Thermo Fisher Scientific) and grown to confluency to hold cells in the G0. Cells were synchronously infected on ice for 30 mins at MOI=1 (infection with mutant was done at room temperature). Live cells were imaged using a 20× oil objective on a spinning-disk confocal microscope (Olympus DSU™) equipped with a 37° C., humidified, 5% CO2 live-cell chamber. Image collection began when YFP signal was first detected and frames were captured every 10 minutes for 16-24 hours using an exposure time between 200 and 800 msec. Single-cell tracking and segmentation were performed with custom-written code in MatLab™ (Mathworks) as previously described (Weinberger et al., 2008). Homo-FRET imaging was performed as previously described (Weinberger and Shenk, 2007).

CMV IE2-YFP virus = assay: Viral replication kinetics (titer), CMV IE2-YFP virus; settings: for replication fitness of the parent virus (toxicity of exposure alone): VPA or TSA exposure
Experimental: as §2
(§4) Confluent MRC5 monolayers at ˜5×10^4 cells per well were infected at indicated MOIs using 0.45 μm pre-filtered virus inoculum stocks diluted in culture media. Inoculums were calculated based on plaque-assay titrations (Bolovan-Fritts and Wiedeman, 2001), shown as time point 0 in each figure. Inoculum was then removed and replaced with 1 mL fresh media. Infected wells were collected in triplicate at indicated time points and stored at −80° C. To measure replication, samples were thawed and prepared as a 10-fold serial-dilution series in culture media, analyzed by TCID50, then converted to PFU/ml. Error ranges were calculated by standard deviation.

CMV Δcrs mutant virus = assay: Replicative fitness of the CMV Δcrs mutant virus (PFU/ml); settings: 72-hour VPA treatment, PFU/ml on day 10 after infection at MOI=1
Experimental: The CMV GFP control virus (Yu et al., 2003) encodes an SV40 promoter-EGFP cassette. The CMV […] IE2-YFP virus was constructed from the CMV IE2-YFP background as described (Cuevas-Bennett and Shenk, 2008). Viral stocks were titered by TCID50 (Nevels et al., 2004). To verify the integrity of the CMV Δcrs IE2-YFP virus, a rescue virus, CMV ΔcrsREVERT IE2-YFP, was constructed by homologous recombination, whereby CMV Δcrs IE2-YFP BAC DNA (20 μg) and a ˜2.5 kb wild-type MIEP DNA fragment (2.5 μg) were co-transfected by electroporation into 10^6 MRC5 cells, and subjected to two rounds of plaque purification.
as §4

[5] = system: low-passage clinical CMV isolate TB40-E; assay: Viral replication (titer), clinical isolate TB40-E
Experimental: as §4

## CC(/C=C/C(=O)NO)=C\[C@@H](C)C(=O)c1ccc(N(C)C)cc1 [TSA, Trichostatin A]
[1]
  GFP steady-state level as a function of activation (closed-loop dose-response): saturation in steady-state level
IE2
  IE2 protein levels (amplification): do not amplify IE2 protein levels
  rate of IE2 expression (acceleration): accelerate IE2 expression
[2]
  GFP median fluorescence intensity: significantly increased
[2]; different levels of activation by TSA treatment, 17 hours
  GFP steady-state level as a function of activation (closed-loop dose-response): linear increase in final level
[3]
  viability (percentage of live cells): little effect on viability
[4]
  viability (percentage of live cells): significantly decreased viability
IE2-YFP
  rate of IE2 expression in single cells (time to steady-state): significantly accelerates IE2 expression in single cells
  steady-state IE2 levels in single cells: does not amplify steady-state IE2 levels
CMV IE2-YFP virus
  replication fitness of the parent virus (toxicity of exposure alone): neither activator reduces replication fitness

## CCCC(CCC)C(=O)O [VPA, Valproic Acid]
IE2
  IE2 protein levels (amplification): do not amplify IE2 protein levels; also recorded: no amplification in IE2 levels
  rate of IE2 expression (acceleration): accelerate IE2 expression; also recorded: acceleration
[2]
  GFP median fluorescence intensity: significantly increased
CMV Δcrs mutant virus
  replication of the mutant amplifier virus: Decreased replication
[5]
  increase in titer: nine
IE2-YFP
  rate of IE2 expression in single cells (time to steady-state): significantly accelerates IE2 expression in single cells; also recorded: decreases time to steady-state
  steady-state IE2 levels in single cells: does not amplify steady-state IE2 levels; also recorded: without increasing steady-state IE2-YFP levels
CMV IE2-YFP virus; 72-hour VPA pre-treatment, after the first round of viral maturation (~96 hours), MOI=1
  increase in viral replication compared to the untreated control: approximately five
CMV IE2-YFP virus
  replication fitness of the parent virus (toxicity of exposure alone): neither activator reduces replication fitness

## Tumor Necrosis Factor Alpha [TNF-α]
IE2
  IE2 protein levels (amplification): do not amplify IE2 protein levels
  rate of IE2 expression (acceleration): accelerate IE2 expression
[2]
  GFP median fluorescence intensity: significantly increased
IE2-YFP
  rate of IE2 expression in single cells (time to steady-state): significantly accelerates IE2 expression in single cells
  steady-state IE2 levels in single cells: does not amplify steady-state IE2 levels
